Experimental data taken from PMC2956102 (International Journal of Molecular Sciences, 2010).
Read-outs that look alike come from different tables or passages of the source.

What was measured:
[1] = cited from earlier work
intestinal maltase = assay: Intestinal α-glucosidase (maltase) inhibition assay, rat intestinal acetone powder; format: biochemical; conditions: for IC50: 37 mM maltose, pH 6.9, 37 °C, 30 min, means ± S.E.M., n = 3
Description: (§1) The assessment of α-glucosidase inhibitory activity was performed according to our previous report. Briefly, 100 mg of rat intestinal acetone powder was homogenized in 3 mL of 0.9% NaCl solution. After centrifugation (12,000 g × 30 min), 10 μL of the supernatant (maltase = 0.68 units/mg protein, sucrase = 0.10 units/mg protein) was incubated with 70 μL of substrate solution (37 mM maltose, 54 mM sucrose), and 20 μL of sample at various concentrations in 0.1 M phosphate buffer pH 6.9 at 37 °C for 30 min (maltase assay) and 60 min (sucrase assay). The mixtures were suspended in boiling water for 10 min to stop the reaction. The concentrations of glucose released from the reaction mixtures were determined by glucose oxidase method. Acarbose was used as a positive control for this assay.
(§2) The reaction was performed according to the above assay (α-glucosidase and pancreatic α-amylase). Results were expressed as a percentage inhibition of the corresponding control values.

intestinal sucrase [2] = target: T1, intestinal sucrase (Rattus norvegicus, UniProt P23739); assay: Intestinal α-glucosidase (sucrase) inhibition assay, rat intestinal acetone powder; format: biochemical; conditions: for Percentage intestinal sucrase inhibition in combination with acarbose, compared with acarbose alone: 1 μM compound + 3.12 μM acarbose, Figure 3; for IC50: 54 mM sucrose, pH 6.9, 37 °C, 60 min, means ± S.E.M., n = 3
T1 construct: 100 mg of rat intestinal acetone powder was homogenized in 3 mL of 0.9% NaCl solution; tissue Sigma Chemical Co. Ltd. (St. Louis, MO); host or cells: rat intestine (acetone powder, supernatant of the saline homogenate)
Description: as §1, with “method.” for “method. Acarbose was used as a positive control for this assay.”
as §2

[3] = target: T2, porcine pancreatic α-amylase (Sus scrofa, UniProt P00690); assay: Pancreatic α-amylase inhibition assay (starch, DNS reagent); format: biochemical; conditions: for Percentage pancreatic α-amylase inhibition in combination with acarbose, compared with acarbose alone: 1.0 μM compound + 3.12 μM acarbose, Figure 4; for IC50: 1 g/L starch, amylase 3 U/mL, pH 6.9, 10 min, means ± S.E.M., n = 3
T2 construct: purchased Sigma Chemical Co. Ltd. (St. Louis, MO)
T2 sequence (P00690 16-511): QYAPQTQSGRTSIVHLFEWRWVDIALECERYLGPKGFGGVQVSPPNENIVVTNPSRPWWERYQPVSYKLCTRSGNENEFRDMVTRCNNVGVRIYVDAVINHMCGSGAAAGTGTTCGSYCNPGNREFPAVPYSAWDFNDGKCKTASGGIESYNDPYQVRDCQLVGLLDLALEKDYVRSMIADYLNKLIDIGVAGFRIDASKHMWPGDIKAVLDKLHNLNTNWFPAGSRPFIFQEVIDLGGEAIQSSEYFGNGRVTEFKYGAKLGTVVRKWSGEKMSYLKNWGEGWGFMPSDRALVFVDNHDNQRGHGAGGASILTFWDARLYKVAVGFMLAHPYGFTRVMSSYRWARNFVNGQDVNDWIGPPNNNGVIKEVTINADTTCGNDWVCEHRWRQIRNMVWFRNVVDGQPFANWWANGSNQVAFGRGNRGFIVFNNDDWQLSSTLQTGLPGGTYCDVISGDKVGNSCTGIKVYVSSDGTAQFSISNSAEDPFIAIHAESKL
Description: The pancreatic α-amylase inhibition assay was performed according to our previous reports. Porcine pancreatic α-amylase was dissolved in 0.1 M phosphate buffer saline, pH 6.9. The various concentrations of test compounds were added to solution containing in 1 g/L starch and phosphate buffer. The reaction was initiated by adding amylase (3 U/mL) to the incubation medium to a final volume of 500 μL. After 10 min, the reaction was stopped by adding 0.5 mL dinitrosalicylic (DNS) reagent (1% 3,5-dinitrosalicylic acid, 0.2% phenol, 0.05% Na2SO3, and 1% NaOH in aqueous solution) to the reaction mixture. The mixtures were heated at 100 °C for 10 min and 500 μL of 40% potassium sodium tartarate solution was added to the mixtures to stabilize the color. After cooling to room temperature in a cold water bath, absorbance was recorded at 540 nm using a spectrophotometer.
as §2

pancreatic β-cell line = test system: pancreatic β-cell line; parameters: method as in PMID 15631504; conditions: ref [16]; cited from earlier work
intestinal sucrase [4] = target: T1, intestinal sucrase; conditions: cited from earlier work
intestinal α-glucosidase = conditions: combination of acarbose and compound; ref [8]; cited from earlier work
3T3-L1 adipocytes = test system: 3T3-L1 adipocytes; parameters: method as in PMID 18179781; conditions: H2O2- or TNF-α-induced, via inhibition of JNK signal pathway; ref [15]; cited from earlier work
yeast α-glucosidase = test system: yeast α-glucosidase; parameters: method as in PMID 15558946; conditions: ref [9]; cited from earlier work

T1 sequence (P23739 1014-1841 limits assumed): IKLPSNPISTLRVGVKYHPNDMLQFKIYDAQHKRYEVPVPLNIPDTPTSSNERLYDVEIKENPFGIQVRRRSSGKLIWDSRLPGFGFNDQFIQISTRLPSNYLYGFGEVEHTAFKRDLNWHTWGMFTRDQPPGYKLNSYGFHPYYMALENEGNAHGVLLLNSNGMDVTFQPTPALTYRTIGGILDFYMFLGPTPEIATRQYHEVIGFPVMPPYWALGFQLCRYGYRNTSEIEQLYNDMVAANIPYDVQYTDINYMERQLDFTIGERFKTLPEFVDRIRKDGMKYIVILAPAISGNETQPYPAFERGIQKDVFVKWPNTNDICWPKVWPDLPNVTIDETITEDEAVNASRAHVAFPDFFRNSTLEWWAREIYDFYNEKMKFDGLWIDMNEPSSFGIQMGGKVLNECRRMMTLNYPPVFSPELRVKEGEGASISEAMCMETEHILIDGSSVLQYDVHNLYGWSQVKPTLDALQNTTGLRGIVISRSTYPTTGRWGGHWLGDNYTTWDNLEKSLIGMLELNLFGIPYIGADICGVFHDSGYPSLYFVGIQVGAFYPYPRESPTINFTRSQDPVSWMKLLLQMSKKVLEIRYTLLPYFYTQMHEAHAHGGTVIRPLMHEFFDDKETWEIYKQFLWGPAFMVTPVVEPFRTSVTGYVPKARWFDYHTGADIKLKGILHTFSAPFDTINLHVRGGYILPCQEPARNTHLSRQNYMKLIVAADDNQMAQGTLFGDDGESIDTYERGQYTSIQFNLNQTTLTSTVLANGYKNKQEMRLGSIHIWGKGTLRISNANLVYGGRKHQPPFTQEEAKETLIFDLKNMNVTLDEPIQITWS
T1 sequence (P23739 2-1013 partner limits assumed): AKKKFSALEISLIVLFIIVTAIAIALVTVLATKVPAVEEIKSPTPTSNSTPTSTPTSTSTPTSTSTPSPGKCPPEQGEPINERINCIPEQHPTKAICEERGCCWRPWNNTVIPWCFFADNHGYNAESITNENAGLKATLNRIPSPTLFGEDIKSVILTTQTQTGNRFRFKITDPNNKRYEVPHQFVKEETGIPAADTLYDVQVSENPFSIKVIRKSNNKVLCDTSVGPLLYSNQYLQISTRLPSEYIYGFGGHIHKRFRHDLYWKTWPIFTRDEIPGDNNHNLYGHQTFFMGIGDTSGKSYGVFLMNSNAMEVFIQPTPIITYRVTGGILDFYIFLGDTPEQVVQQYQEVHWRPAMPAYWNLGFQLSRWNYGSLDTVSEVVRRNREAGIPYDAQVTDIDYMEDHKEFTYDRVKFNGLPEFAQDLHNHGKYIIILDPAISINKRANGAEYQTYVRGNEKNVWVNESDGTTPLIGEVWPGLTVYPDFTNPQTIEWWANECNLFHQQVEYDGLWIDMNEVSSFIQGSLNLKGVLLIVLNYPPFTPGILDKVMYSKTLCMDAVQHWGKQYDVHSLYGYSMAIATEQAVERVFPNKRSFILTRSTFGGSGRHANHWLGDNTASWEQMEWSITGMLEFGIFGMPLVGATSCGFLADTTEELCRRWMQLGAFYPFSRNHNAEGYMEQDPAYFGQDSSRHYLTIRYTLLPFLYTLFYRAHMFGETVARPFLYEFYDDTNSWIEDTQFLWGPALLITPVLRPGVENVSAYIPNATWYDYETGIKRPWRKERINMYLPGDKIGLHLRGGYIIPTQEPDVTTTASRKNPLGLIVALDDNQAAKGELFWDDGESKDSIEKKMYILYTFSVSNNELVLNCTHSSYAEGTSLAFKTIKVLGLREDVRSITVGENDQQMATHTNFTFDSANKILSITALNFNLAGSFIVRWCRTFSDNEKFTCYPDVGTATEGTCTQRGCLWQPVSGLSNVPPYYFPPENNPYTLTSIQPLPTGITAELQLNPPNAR

IC50 (intestinal maltase) [µM] | Intestinal sucrase inhibitory activity (intestinal sucrase [2]) | Percentage intestinal sucrase inhibition in combination with acarbose, compared with acarbose alone (intestinal sucrase [2]) | IC50 (intestinal sucrase [2]) [µM] | Pancreatic α-amylase inhibitory activity [3] | Percentage pancreatic α-amylase inhibition in combination with acarbose, compared with acarbose alone [3] | IC50 [3] [µM] | SMILES | Insulin secretion (pancreatic β-cell line) | other results
> 3000 | inactive | synergistic effects | > 2000 | no inhibitory activity | did not show significant changes | > 1000 | OC[C@H]1O[C@@H](Oc2cc3c(O[C@@H]4O[C@H](CO)[C@@H](O)[C@H](O)[C@H]4O)cc(O)cc3[o+]c2-c2ccc(O)c(O)c2)[C@H](O)[C@@H](O)[C@@H]1O [Cyanidin-3,5-diglucoside, cyanidin-3,5-diglucoside] |  | 
> 3000 |  | synergistic effects |  | no inhibitory activity | did not show significant changes | > 1000 | OC[C@H]1O[C@@H](Oc2cc3c(O)cc(O)cc3[o+]c2-c2ccc(O)c(O)c2)[C@H](O)[C@@H](O)[C@H]1O [Cyanidin-3-galactoside, cyanidin-3-galactoside chloride] | directly stimulate insulin secretion | Type of inhibition against intestinal sucrase (intestinal sucrase [4]; kinetic model, ref [8]): mixed type; IC50 (intestinal sucrase [4]; previously reported value, ref Adisakwattana et al. [8]): 500 ± 50 µM; Effect of combination with acarbose on intestinal α-glucosidase inhibition (intestinal α-glucosidase): synergistic effect
> 3000 |  | synergistic effects | 970 ± 50 |  | significantly increased | 300 ± 10 | OC[C@H]1O[C@@H](Oc2cc3c(O)cc(O)cc3[o+]c2-c2ccc(O)c(O)c2)[C@H](O)[C@@H](O)[C@@H]1O [Cyanidin-3-glucoside, cyanidin-3-glucoside chloride] | directly stimulate insulin secretion | Action against induced insulin resistance (3T3-L1 adipocytes): protective action

More lines, now with the values behind:

SMILES | IC50 (intestinal maltase) [µM] | Intestinal sucrase inhibitory activity (intestinal sucrase [2]) | Percentage intestinal sucrase inhibition in combination with acarbose, compared with acarbose alone (intestinal sucrase [2]) | IC50 (intestinal sucrase [2]) [µM] | Pancreatic α-amylase inhibitory activity [3] | Percentage pancreatic α-amylase inhibition in combination with acarbose, compared with acarbose alone [3] | IC50 [3] [µM] | Insulin secretion (pancreatic β-cell line) | other results
C[C@H]1O[C@H](O[C@H]2[C@H](O)[C@@H](O)[C@@H](O[C@H]3[C@H](O)[C@@H](O)C(O)O[C@@H]3CO)O[C@@H]2CO)[C@H](O)[C@@H](O)[C@@H]1N[C@H]1C=C(CO)[C@@H](O)[C@H](O)[C@H]1O (stereo partly drawn) [Acarbose] | 3 ± 1 |  |  |  |  |  |  |  | Reduction in the incidence of diabetes ([1]; acarbose treatment, ref [18]): 25%; Reduction of the postprandial peak of glycemia ([1]; acarbose treatment, ref [19]): 20%; Most common adverse effect ([1]; dose-dependent, flatulence, meteorism and abdominal distention, ref [19]): gastrointestinal disturbance; Duration of the effect on postprandial glycemia ([1]; ref [19]): ≤ 5 h; Dose exceeding the saturated binding of α-glucosidase, no increase in inhibitory effect ([1]; ref [20],[21]): > 300 mg/day; Lowest dose with clinical effects ([1]; ref [20],[21]): 150 mg/day
Oc1cc(O)c2cc(O)c(-c3ccc(O)c(O)c3)[o+]c2c1 [Cyanidin, Cyanidin chloride] | > 3000 | weak | No change | 1420 ± 250 | weak | significantly increased | 380 ± 10 |  | Percentage intestinal maltase inhibition in combination with acarbose, compared with acarbose alone (intestinal maltase; 1 μM compound + 0.05 μM acarbose, Figure 2): No change
C[C@@H]1O[C@@H](OC[C@H]2O[C@@H](Oc3cc4c(O)cc(O)cc4[o+]c3-c3ccc(O)c(O)c3)[C@H](O)[C@@H](O)[C@@H]2O)[C@H](O)[C@H](O)[C@H]1O [cyanidin-3-rutinoside] |  |  |  |  |  |  |  |  | Manner of inhibition of yeast α-glucosidase (yeast α-glucosidase): non-competitive
